Structures can show the parent of a compound that is named as a salt. Where two headings read alike, the source gives them in different places.
Assays:
[1] = Adhesion studies (tablet punch surfaces, blends with Avicel PH 101); format: physicochemical
Procedure: Avicel PH 101 and each (S)-amlodipine salt were pre-screened through a 25-mesh sieve to delump the powders prior to blending. […] Approximately 500 mg was weighed into the ½-inch tablet die, a tablet punch was added and 0.2 metric tons of pressure was applied using a Carver press for 2-3 seconds. The tablet was then removed, and the surfaces of the tablet punches (concave, SRC) were washed with mobile phase (1 mL). The wash was then assayed by HPLC. Three measurements were made for each blend.

[2] = Moisture balance (VTI SGA-100 sorption isotherm); format: physicochemical; settings: equilibrated at 95% RH (sorption range 5% to 95% RH)
Procedure: Moisture-sorption data were collected on a VTI SGA-100 moisture balance system. […] The sample was not dried prior to analysis. Equilibrium criteria used for analysis were less than 0.0100 weight-percent change in 5 minutes with a maximum equilibration time of 3 hours if the weight criterion was not met. The data were not corrected for the initial moisture content of the sample.

[3] = format: physicochemical; settings: for pH of saturated solution: DI H2O, ambient temperature
Description: The solution was sampled periodically, filtered using a 0.2 μm PTFE syringe filter and assayed by HPLC.
The sample was filtered through a 0.2 μm filter and assayed by HPLC.

Solid state stability = format: physicochemical; settings: 60° C./75% RH
Procedure: Individual samples were prepared and stored at 25° C./60% RH and 40° C./75% RH. Samples stored at 60° C./75% RH were packaged in uncapped glass vials. All samples were analyzed for assay and impurity by HPLC.

[4] = Hygroscopicity and desolvation studies of crystal forms (XRPD); format: physicochemical; settings: 31, 75, 84 and 95% relative humidity, approximately one week
Procedure: Hygroscopicity studies were performed by placing portions of a select form in a 11, 32, 45, 66, 75, 84% or 95% relative humidity (RH) chamber for approximately one to three weeks. Desolvation studies were carried out by heating each form in an 80° C. oven for approximately one week. Interconversion experiments were carried out by making slurries containing two forms in a saturated solvent. The slurries were agitated for approximately seven days at ambient temperature. The insoluble solids were recovered by filtration and analyzed using XRPD.

[5] = TGA, water content and moisture sorption profiles; format: physicochemical
Procedure: Moisture Sorption Isotherms: Moisture sorption isotherms were generated using VTI SGA-100 symmetric vapor sorption analyzer. Samples were not pre-dried. Equilibrium criteria were the lesser of 0.01 wt % change in 5 minutes or 180 minutes at each RH step. Temperature was fixed at 25° C. and the relative humidity steps (25% to 95% to 25%) were in 5% increments. In FIG. 27, adsorption data is shown as a solid line with desorption data connected by a dashed line. Water Content: Water content was determined by coulometric titration using an EM Science Aquastar® C300 Karl Fischer titrator. TGA: Samples were analyzed using Perkin Elmer TGA 7 thermal gravimetric analyzer at a heating rate of 10° C./min.

[6] = 5% (S)-Amlodipine salt in Avicel
[7] = 25% (S)-Amlodipine salt in Avicel

O=C(O)[C@H](O)[C@@H](O)C(=O)O [(L)-Tartrate]
Adhesion [1, 6]: 9.3E−07 g (S)-amlodipine/cm^2 | Adhesion [1, 7]: 4.9E−06 g (S)-amlodipine/cm^2

CCOC(=O)C1=C(COCCN)NC(C)=C(C(=O)OC)[C@@H]1c1ccccc1Cl.O=C(O)C(O)C(O)C(=O)O [(S)-amlodipine D-tartrate]
Adhesion [1, 6]: 6.0E−07 g (S)-amlodipine/cm^2 | Adhesion [1, 7]: 2.8E−06 g (S)-amlodipine/cm^2

CCOC(=O)C1=C(COCCN)NC(C)=C(C(=O)OC)[C@@H]1c1ccccc1Cl [(S)-amlodipine maleate]
Adhesion [1, 6]: 5.8E−07 g (S)-amlodipine/cm^2 | Adhesion [1, 7]: 3.9E−06 g (S)-amlodipine/cm^2

CCOC(=O)C1=C(COCCN)NC(C)=C(C(=O)OC)C1c1ccccc1Cl.O=C(O)CC(O)C(=O)O [form D′, (S)-Amlodipine-D-malate]
increase in weight (moisture balance) [2]: 0.3%

(S)-amlodipine L-malate
pH of saturated solution ([3]; initial salt screen): 4.0 | pH of saturated solution ([3]; more recent sample): 3.56 | Free Base Concentration (solubility) ([3]; pH 3.56): 6000 µg/mL | Malate Concentration (solubility) ([3]; pH 3.56): 8000 µg/mL | Free Base Concentration (solubility) ([3]; pH 4): 10100 µg/mL | Malate Concentration (solubility) ([3]; pH 4): 13400 µg/mL | time for which solid was fairly stable (Solid state stability): > 2 months | Adhesion [1, 6]: 4.9E−07 g (S)-amlodipine/cm^2 | Adhesion [1, 7]: 2.6E−06 g (S)-amlodipine/cm^2 | adhesion to solid dosage form manufacturing equipment compared to other salts ([1]; blended at typical levels with Avicel): decreased adhesion | increase in weight (moisture balance) [2]: 0.5% | crystal form after hygroscopicity study [4]: remained unchanged | Moisture Desorption ([5]; at 25% RH, 25° C.): 0.06 % wt remaining | Moisture Adsorption ([5]; at 95% RH, 25° C.): 0.24 % wt gain | KF water content ([5]; coulometric Karl Fischer): 0.13 % H2O | TGA ([5]; heating rate 10° C./min): 0.14 % wt loss | hygroscopicity ([5]; moisture sorption, TGA and Karl Fischer data): not hygroscopic
